Data on 4 compounds can be found in patent publication US20130205449A1, “Methods and Compositions for Production of Triploid Sterile Plants” (University of Connecticut, priority 2011, published 2013).

Common to all, as to assay type: cell-based, Euonymus alatus
Experiment [1] concerns E. alatus ‘Compactus’ immature endosperm explants. Nature of the experiment: Callus induction from immature endosperm explants. Particulars: in combination with the same concentration of BA. Here is the method: (§1) Except for rooting, all the media described herein were composed of MS salts (Murashige and Skoog, 1962) with 100 mg/L myo-inositol, 2.0 mg/L glycine, 1.0 mg/L thiamine-HCl, 0.5 mg/L nicotinic acid, 0.5 mg/L pyridoxine-HCl, 0.3 g/L casein hydrolysate, 0.5 g/L 2-(Nmorpholino) ethanesulfonic acid, 30.0 g/L sucrose, and 7.0 g/L agar. The pH of all culture media was adjusted to 5.8 with KOH or HCl before addition of agar. All media were autoclaved at 121° C. for 20 minutes, and all the cultures, except for those specifically mentioned, were maintained at 23±2° C. under 35 to 45 μmol/m^2s light provided by white cool fluorescent tube lamps over a 16-hour photoperiod.
Endosperm tissues with seedcoats and embryos completely removed were used for triploid callus induction (FIG. 1A). […]
Seed coats and embryos were removed, and the immature endosperm explants were cultured in disposable petri dishes (90×20 mm) containing MS medium supplemented with different combinations of four concentrations of BA (2.22, 4.44, 8.88, and 17.76 μM), three concentrations of NAA (2.69, 5.38, and 10.76 μM), and two concentrations of 2,4-dichlorophenoxy-acetic acid (2,4-D) (2.26 and 9.04 μM) to induce callus formation. […] Callus formation data were recorded at Week 12 of culture, and mean number of immature endosperm explants forming calli was calculated based on three replicates for each treatment. […]

Experiment [2] deals with shoots from embryo or endosperm-derived calli. Nature of the experiment: Rooting of regenerated shoots. Here is the method: After shoot buds were formed from embryo or endosperm-derived calli, they were transferred together with their callus explants into Magenta boxes containing the MS medium supplemented with 4.44 μM BA and 0.49 μM IBA for further growth. When the shoots grew to 1 to 2 cm in height, they were excised from callus tissues and cultured on root induction Medium I, which included half strength WPM (Lloyd and McCown, 1980, Proc. Intl. Plant Prop. Soc., 30:421-427) with 2% sucrose, 0.04% ammonium nitrate, 0.4% agar, 0.14% phytagel (a blended agar and phytagel medium was used to produce a totally transparent medium so that initiation and growth of roots could be easily monitored), and 4.9 μM IBA (Clements, 2007, In vitro induction of polyploidy, rooting, and overcoming the dormancy limitations of Euonymus alatus ‘Compactus,” MS Thesis, Univ. of. Conn., p. 536)). Two weeks later, the shoots were transferred onto rooting Medium II (Clements, 2007), which was IBA-free rooting Medium I with 2 g/L activated charcoal (Kang et al., 2009). The pH of the rooting media was adjusted to 5.2 with KOH or HCl before the addition of gelling agents. The root cultures were transferred to fresh medium every four weeks. […]

Experiment [3] relates to immature endosperm-derived calli of E. alatus ‘Compactus’. Nature of the experiment: Shoot bud induction from immature endosperm-derived calli. Particulars: zeatin at 9.13 or 18.26 μM, kinetin at 9.30 or 18.60 μM, in the presence of 0.49 μM IBA. Here is the method:
as §1
After 12 weeks of culture, compact, greenish calli formed on six callus induction media supplemented with 2.22, 4.44, or 8.88 μM BA and 2.69 or 5.38 μM NAA were cut into pieces (approximately 0.5 cm×0.5 cm in size) and transferred to the petri dishes containing shoot induction media supplemented with 4.44 or 13.32 μM BA, 9.13 or 18.26 μM zeatin, and 9.30 or 18.60 μM kinetin plus 0.49 μM IBA or 0.57 μM indole-3-acetic acid (IAA). Callus segments also were cultured on hormone free MS medium as a control. […] Bud (shoot bud) formation was recorded at Week 8 of culture. Bud induction rates were calculated by dividing the number of calli forming shoot buds by the number of calli cultured. […]

On to `O=C(O)COc1ccc(Cl)cc1Cl` [2,4-D, 2,4-dichlorophenoxy-acetic acid], for which the “Effectiveness in callus induction compared with NAA” value in experiment [1] was “less effective in callus induction than NAA”.

For the compound `O=C(O)CCCc1c[nH]c2ccccc12` [IBA, indole-3-butyric acid], the “Shoots developed into healthy plants with well-developed roots” value in experiment [2] (Medium I with 4.9 μM IBA two weeks, then IBA-free Medium II with 2 g/L activated charcoal, within 10 weeks of culture) is recorded as 85%. Moreover, the Shoots rooted result in experiment [2] (WPM with 4.9 μM IBA for two weeks, then hormone-free WPM with 2.0 g/L activated charcoal for four weeks) is “Eighty five percent”. Consider `c1coc(CNc2ncnc3[nH]cnc23)c1` [kinetin], for which, in experiment [3], the Bud formation result is reported as “failed to induce bud formation”. On to `C/C(=C\CNc1ncnc2[nH]cnc12)CO` [zeatin], for which the Bud formation entry in experiment [3] is “failed to induce bud formation”.
